Laboratory results taken from ChEMBL document CHEMBL5344433, “Target Separation and Potential Anticancer Activity of Withanolide-Based Glucose Transporter Protein 1 Inhibitors from Physalis angulata var. villosa” (J Nat Prod, 2024).
The source made the active and inactive calls. The rule behind the calls is not given here.

Tests used:
MCF7 [1] = assay: Induction of apoptosis in human MCF7 cells assessed as viable cells at 20 uM incubated for 24 hrs by Annexin V-FITC/7AAD staining based flow cytometery (reference value: 98.8%); assay type: functional; settings: read-out: Activity
MCF7 [2] = assay: Induction of apoptosis in human MCF7 cells assessed as necrotic cells at 10 uM incubated for 24 hrs by Annexin V-FITC/7AAD staining based flow cytometery (reference value: 0.019%); assay type: functional
MCF7 [3] = assay: Anticancer activity against human MCF7 cells assessed as increase in cell necrosis at 20 uM incubated for 48 hrs relative to control; assay type: functional
MCF7 [4] = assay: Anticancer activity against human MCF7 cells assessed as increase in cell apoptosis at 20 uM incubated for 48 hrs relative to control; assay type: functional
MCF7 [5] = assay: Induction of apoptosis in human MCF7 cells assessed as late apoptotic cells at 10 uM incubated for 24 hrs by Annexin V-FITC/7AAD staining based flow cytometery (reference value: 0.68%); assay type: functional
MCF7 [6] = assay: Induction of apoptosis in human MCF7 cells assessed as early apoptotic cells at 10 uM incubated for 24 hrs by Annexin V-FITC/7AAD staining based flow cytometery (reference value: 0.50%); assay type: functional
MCF7 [7] = assay: Induction of apoptosis in human MCF7 cells assessed as viable cells at 10 uM incubated for 24 hrs by Annexin V-FITC/7AAD staining based flow cytometery (reference value: 98.8%); assay type: functional; settings: read-out: Activity
MCF7 [8] = assay: Induction of apoptosis in human MCF7 cells assessed as necrotic cells at 5 uM incubated for 24 hrs by Annexin V-FITC/7AAD staining based flow cytometery (reference value: 0.019%); assay type: functional
MCF7 [9] = assay: Induction of apoptosis in human MCF7 cells assessed as late apoptotic cells at 5 uM incubated for 24 hrs by Annexin V-FITC/7AAD staining based flow cytometery (reference value: 0.68%); assay type: functional
MCF7 [10] = assay: Induction of apoptosis in human MCF7 cells assessed as early apoptotic cells at 5 uM incubated for 24 hrs by Annexin V-FITC/7AAD staining based flow cytometery (reference value: 0.50%); assay type: functional
MCF7 [11] = assay: Induction of apoptosis in human MCF7 cells assessed as viable cells at 5 uM incubated for 24 hrs by Annexin V-FITC/7AAD staining based flow cytometery (reference value: 98.8%); assay type: functional; settings: read-out: Activity
MCF7 [12] = assay: Induction of apoptosis in human MCF7 cells assessed as late apoptotic cells at 20 uM incubated for 24 hrs by Annexin V-FITC/7AAD staining based flow cytometery (reference value: 0.68%); assay type: functional
MCF7 [13] = assay: Induction of apoptosis in human MCF7 cells assessed as necrotic cells at 20 uM incubated for 24 hrs by Annexin V-FITC/7AAD staining based flow cytometery (reference value: 0.019%); assay type: functional
MCF7 [14] = assay: Induction of apoptosis in human MCF7 cells assessed as early apoptotic cells at 20 uM incubated for 24 hrs by Annexin V-FITC/7AAD staining based flow cytometery (reference value: 0.50%); assay type: functional
MCF7 [15] = assay: Induction of cell cycle arrest in human MCF7 cells assessed as accumulation of cells at G2/M phase at 5 uM by propidium iodide staining based flow cytometry (reference value: 9.72%); assay type: functional; settings: time 30 min, 0.5 h
[16] = biological target: T1, Solute carrier family 2, facilitated glucose transporter member 1 (Homo sapiens, UniProt P11166); assay: Binding affinity to GLUT1 (unknown origin) assessed as dissociation constant at 800 uM by MST assay
T1 sequence (P11166 whole entry): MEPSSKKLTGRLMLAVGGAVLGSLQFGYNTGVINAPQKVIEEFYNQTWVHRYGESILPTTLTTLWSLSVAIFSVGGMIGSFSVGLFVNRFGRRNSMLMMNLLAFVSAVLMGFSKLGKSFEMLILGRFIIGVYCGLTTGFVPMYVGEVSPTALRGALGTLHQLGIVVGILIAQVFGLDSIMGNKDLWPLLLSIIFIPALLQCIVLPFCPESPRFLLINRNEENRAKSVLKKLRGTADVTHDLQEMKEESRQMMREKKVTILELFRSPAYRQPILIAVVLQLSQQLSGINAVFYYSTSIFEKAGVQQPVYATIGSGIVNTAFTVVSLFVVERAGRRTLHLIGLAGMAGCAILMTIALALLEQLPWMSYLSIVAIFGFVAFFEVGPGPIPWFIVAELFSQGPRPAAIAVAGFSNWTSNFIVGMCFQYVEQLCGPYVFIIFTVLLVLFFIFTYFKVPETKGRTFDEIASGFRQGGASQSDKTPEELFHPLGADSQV

[17] = biological target: T2, Solute carrier family 2, facilitated glucose transporter member 1 (Homo sapiens) (UniProt P11166); assay: Inhibition of GLUT1 in human MCF7 cells assessed as reduction in GLUT1 degradation by CETSA assay; assay type: cell-based
T2 sequence (whole entry): T1 sequence (P11166 whole entry)

[18] = biological target: T2, Solute carrier family 2, facilitated glucose transporter member 1 (Homo sapiens); assay: Inhibition of human GLUT1 in HEK293FT cells assessed as reduction in glucose uptake at 10 uM incubated for 24 hrs and further incubated for 1 hr under dark condition by flow cytometry; assay type: cell-based; settings: time 25.0 hrs
[19] = Cytotoxicity against human MCF7 cells assessed as reduction in cell viability incubated for 24 hrs by MTT assay; assay type: toxicity, cell-based
[20] = biological target: T1, Solute carrier family 2, facilitated glucose transporter member 1; assay: Inhibition of GLUT1 in human MCF7 cells assessed as ATP production incubated for 24 hrs in presence of 0.1 mM glucose; assay type: cell-based
[21] = biological target: T1, Solute carrier family 2, facilitated glucose transporter member 1; assay: Inhibition of GLUT1 in human MCF7 cells assessed as ATP production incubated for 24 hrs in presence of 10 mM glucose; assay type: cell-based
[22] = biological target: T2, Solute carrier family 2, facilitated glucose transporter member 1 (Homo sapiens); assay: Inhibition of GLUT1 in human MCF7 cells assessed as fold change at 5 uM by Western blot analysis; assay type: cell-based
[23] = biological target: T2, Solute carrier family 2, facilitated glucose transporter member 1 (Homo sapiens); assay: Inhibition of GLUT1 in human MCF7 cells assessed as fold change at 10 uM by Western blot analysis; assay type: cell-based
[24] = biological target: T2, Solute carrier family 2, facilitated glucose transporter member 1 (Homo sapiens); assay: Inhibition of GLUT1 in human MCF7 cells assessed as fold change at 20 uM by Western blot analysis; assay type: cell-based
[25] = biological target: T2, Solute carrier family 2, facilitated glucose transporter member 1 (Homo sapiens); assay: Inhibition of GLUT1 in human MCF7 cells assessed as reduction in lactate production measured after 24 hrs; assay type: cell-based; settings: dose 5-20 µM
[26] = biological target: T2, Solute carrier family 2, facilitated glucose transporter member 1 (Homo sapiens); assay: Inhibition of GLUT1 in human MCF7 cells assessed as decrease in extracellular acidification rate at 5 to 20 uM measured for 24 hrs by Seahorse XFe96 analyzer; assay type: cell-based; settings: dose 5-20 µM
[27] = biological target: T2, Solute carrier family 2, facilitated glucose transporter member 1 (Homo sapiens); assay: Inhibition of GLUT1 in human MCF7 cells assessed as reduction in maximal respiratory capacity at 5 to 20 uM incubated for 24 hrs by Seahorse XFe96 analyzer; assay type: cell-based; settings: dose 5-20 µM
MCF7 [28] = assay: Induction of oxidative stress in human MCF7 cells assessed as increase in intracellular ROS level at 5 to 20 uM incubated for 24 hrs; assay type: functional, cell-based; settings: dose 5-20 µM
MCF7 [29] = assay: Induction of oxidative stress in human MCF7 cells assessed as fold increase in intracellular ROS level at 20 uM incubated for 24 hrs; assay type: functional
MCF7 [30] = assay: Induction of cell cycle arrest in human MCF7 cells assessed as accumulation of cells at G2/M phase at 10 uM by propidium iodide staining based flow cytometry (reference value: 9.72%); assay type: functional; settings: time 30 min, 0.5 h
MCF7 [31] = assay: Induction of cell cycle arrest in human MCF7 cells assessed as accumulation of cells at G2/M phase at 20 uM by propidium iodide staining based flow cytometry (reference value: 9.72%); assay type: functional; settings: time 30 min, 0.5 h
[32] = biological target: T2, Solute carrier family 2, facilitated glucose transporter member 1 (Homo sapiens); assay: Agonist activity at GLUTI (unknown origin); settings: filed as agonist
[33] = biological target: T2, Solute carrier family 2, facilitated glucose transporter member 1 (Homo sapiens); assay: Inhibition of GLUTI (unknown origin)

`CC(=O)O[C@H]1[C@@H]2O[C@]2([C@H](C)[C@H]2CC(CO)=C(C)C(=O)O2)[C@@]2(C)CCC3C(C[C@@H](O)[C@@]4(O)CC=CC(=O)[C@]34C)[C@@]12O` (some centres not stated) showed a viability at 20 µM (MCF7 [1]) of 24.2%, an Activity (MCF7 [2]) of 4.56% and an Activity (MCF7 [3]) of 60%. It also gave an Activity (MCF7 [4]) of 15%, an Activity (MCF7 [5]) of 46.7% and an Activity (MCF7 [6]) of 14.1%. It also gave a viability at 10 µM (MCF7 [7]) of 34.6%, an Activity (MCF7 [8]) of 3.84% and an Activity (MCF7 [9]) of 15%. For the same compound, the Activity (MCF7 [10]) was 5.76%, the viability at 5 µM (MCF7 [11]) was 75.4% and the Activity (MCF7 [12]) was 60%. It also gave an Activity (MCF7 [13]) of 0.92%, an Activity (MCF7 [14]) of 14.9% and an Activity (MCF7 [15]) of 11.3%. For the same compound, the Kd [16] was 2.6 µM, the inhibition [17] was “Active” and the inhibition [18] was “Active”. For the same compound, the IC50 at 24 h [19] was 18 µM, the IC50 [20] was 3.46 µM and the IC50 [21] was 180 µM. The fold change (FC) [22] was 0.68, the fold change (FC) [23] was 0.44 and the fold change (FC) [24] was 0.4. For the same compound, the inhibition [25] was “Dose-Dependent Effect”, the inhibition [26] was “Active” and the inhibition [27] was “Active”. The Activity (MCF7 [28]) was “Dose-Dependent Effect”, the “fold change (FC)” value (MCF7 [29]) was 2.8 and the Activity (MCF7 [30]) was 22%. It also gave an Activity (MCF7 [31]) of 47.6%.

In the case of `C[C@@]12C[C@H]3OC(=O)[C@@H]1CO[C@]14O[C@@]5([C@H]2C1=O)[C@@]3(C)OC(=O)[C@@]5(O)CC[C@H]1[C@H]4C[C@H]2O[C@]23CC=CC(=O)[C@]13C`, the Activity [32] is reported as “Active”.

With `CC(=O)O[C@H]1C=C([C@H](C)[C@H]2CC(C)=C(C)C(=O)O2)[C@@]2(C)CC[C@H]3C(C[C@@H](O)[C@@]4(Cl)CC=CC(=O)[C@]34C)[C@]12O` (some centres not stated) the inhibition [33] was “Active”.

In the case of `CC(=O)O[C@H]1C[C@@](O)([C@H](C)[C@H]2CC(C)=C(C)C(=O)O2)[C@@]2(C)CC[C@H]3[C@@H](C[C@H]4O[C@]45CC=CC(=O)[C@]35C)[C@@]12O`, the Kd [16] is reported as 2.6 µM, the inhibition [17] is reported as “Active” and the Activity [32] is reported as “Active”.

In the case of `CC(=O)O[C@H]1C=C([C@H](C)[C@H]2CC(C)=C(C)C(=O)O2)[C@@]2(C)CC[C@H]3[C@@H](C[C@H]4O[C@]45[C@@H](O)C=CC(=O)[C@]35C)[C@@]12O`, the Activity [32] is reported as “Active”.

In the case of `CC(=O)O[C@H]1C[C@@](O)([C@H](C)[C@H]2CC(C)=C(C)C(=O)O2)[C@@]2(C)CC[C@H]3[C@@H](C[C@H]4O[C@]45[C@@H](O)C=CC(=O)[C@]35C)[C@@]12O`, the Activity [32] is reported as “Active”.

For `CC(=O)O[C@H]1C[C@H]([C@H](C)[C@@H]2OC(=O)C(C)=C(C)[C@@H]2O)[C@@]2(C)CCC3C(C[C@@H](O)[C@@]4(O)CC=CC(=O)[C@]34C)[C@@]12O` (some centres not stated), the inhibition [33] was “Active”, the Kd [16] was 2.4 µM and the inhibition [17] was “Active”. The Activity [32] was “Active”.
